Like-named read-outs stand apart in the source and are kept apart here.
Test: LTI-291-002 multiple ascending dose study: plasma and CSF pharmacokinetics
Format: in vivo, human
Experimental: This study was a phase 1, randomized, double-blind, placebo-controlled, multiple ascending dose study of Compound A in 4 cohorts of middle-aged to elderly healthy participants (aged 52 to 75 years). […] A total of 39 healthy subjects were enrolled in 4 sequential cohorts. Subjects in each cohort received once-daily oral doses of 3 mg (n=7), 10 mg (n=8), 30 mg (n=8), or 60 mg (n=8) Compound A or placebo (n=8) for 14 days. Pharmacokinetic parameters were determined for each dose at Day 1, Day 7, and Day 14. Cerebrospinal fluid samples for Compound A concentrations were measured before the first dose and 4 hours after the last dose for each dose level. GluCer, glucosyl sphingosine (GluSph), and lactosyl-ceramide (LacCer) were measured in plasma, PBMCs, and CSF as biomarkers of pharmacological effects. Pharmacodynamic measurements consisted of battery of CNS (NeuroCart®) assessments including Saccadic Eye Movements, Smooth Pursuit Eye Movements, Adaptive Tracking, Body Sway, Visual Verbal Learning Test, and pharmaco-EEG.

[1] = 3 mg daily, dose 1, geometric mean
[2] = 3 mg daily, dose 7, geometric mean
[3] = 3 mg daily, dose 14, geometric mean
[4] = 10 mg daily, dose 1, geometric mean
[5] = 10 mg daily, dose 7, geometric mean
[6] = 10 mg daily, dose 14, geometric mean
[7] = 30 mg daily, dose 1, geometric mean
[8] = 30 mg daily, dose 7, geometric mean
[9] = 30 mg daily, dose 14, geometric mean
[10] = 60 mg daily, dose 1, geometric mean
[11] = 60 mg daily, dose 7, geometric mean
[12] = 60 mg daily, dose 14, geometric mean
[13] = human, plasma, oral, 3 mg, 3 mg daily, dose 1, geometric mean
[14] = human, plasma, oral, 3 mg, 3 mg daily, dose 7, geometric mean
[15] = human, plasma, oral, 3 mg, 3 mg daily, dose 14, geometric mean
[16] = human, plasma, oral, 10 mg, 10 mg daily, dose 1, geometric mean

CCCCCO[C@H]1CC[C@H](NC(=O)c2cnn3c(C)cc(C)nc23)CC1 [Compound A, 5,7-dimethyl-N-((1S*,4S)-4-(pentyloxy)cyclohexyl)pyrazolo[1,5-a]pyrimidine-3-carboxamide]
AUC0-inf/dose [1]: 818 ng·h/mL/mg
Cmax/dose [1]: 29.7 ng/mL/mg
AUC0-inf/dose [2]: 1570 ng·h/mL/mg
Accumulation Index [2]: 2.45
Cavg [2]: 80.1 ng/mL
Cmax/dose [2]: 47.2 ng/mL/mg
AUC0-inf/dose [3]: 2520 ng·h/mL/mg
Accumulation Index [3]: 2.78
Cavg [3]: 115 ng/mL
Cmax/dose [3]: 51.0 ng/mL/mg
Fluctuation [3]: 52.9%
AUC0-inf/dose [4]: 613 ng·h/mL/mg
Cmax/dose [4]: 30.7 ng/mL/mg
AUC0-inf/dose [5]: 1780 ng·h/mL/mg
Accumulation Index [5]: 2.29
Cavg [5]: 322 ng/mL
Cmax/dose [5]: 50.5 ng/mL/mg
AUC0-inf/dose [6]: 1860 ng·h/mL/mg
Accumulation Index [6]: 2.49
Cavg [6]: 313 ng/mL
Cmax/dose [6]: 49.3 ng/mL/mg
Fluctuation [6]: 76.0%
AUC0-inf/dose [7]: 753 ng·h/mL/mg
Cmax/dose [7]: 29.0 ng/mL/mg
AUC0-inf/dose [8]: 1890 ng·h/mL/mg
Accumulation Index [8]: 2.11
Cavg [8]: 1100 ng/mL
Cmax/dose [8]: 53.3 ng/mL/mg
AUC0-inf/dose [9]: 4620 ng·h/mL/mg
Accumulation Index [9]: 5.22
Cavg [9]: 1090 ng/mL
Cmax/dose [9]: 50.0 ng/mL/mg
Fluctuation [9]: 58.1%
AUC0-inf/dose [10]: 655 ng·h/mL/mg
Cmax/dose [10]: 32.6 ng/mL/mg
AUC0-inf/dose [11]: 2310 ng·h/mL/mg
Accumulation Index [11]: 2.72
Cavg [11]: 2170 ng/mL
Cmax/dose [11]: 53.2 ng/mL/mg
AUC0-inf/dose [12]: 2160 ng·h/mL/mg
Accumulation Index [12]: 2.53
Cavg [12]: 2120 ng/mL
Cmax/dose [12]: 51.2 ng/mL/mg
Fluctuation [12]: 67.6%
total exposure (Cmax and AUC0-24) versus dose (3 to 60 mg, after 1st, 7th and 14th dose): increase in a dose proportional manner
Kp at 4 h (human, CSF and plasma, oral, after the 14th daily dose, across dose levels, read-out: CSF-to-plasma concentration ratio, mean): 0.0122 to 0.0128
half-life (human, in vivo, oral, multiple doses, read-out: t½ after multiple doses in Trial LTI-291-002): 25 to 35 h
AUC(0-inf) [13]: 2450 ng·h/mL
Cmax [13]: 89.1 ng/mL
AUC(0-t) (human, plasma, oral, 3 mg, 3 mg daily, dose 1, geometric mean, read-out: AUC0-24): 1050 ng·h/mL
AUC(0-t) (human, plasma, oral, 3 mg, 3 mg daily, dose 1, geometric mean, read-out: AUC0-last): 1040 ng·h/mL
half-life (human, plasma, oral, 3 mg, 3 mg daily, dose 1, geometric mean, read-out: t½ (converted)): 27.9 h
AUC(0-inf) [14]: 4720 ng·h/mL
Cmax [14]: 142 ng/mL
AUC(0-t) (human, plasma, oral, 3 mg, 3 mg daily, dose 7, geometric mean, read-out: AUC0-24): 1920 ng·h/mL
AUC(0-t) (human, plasma, oral, 3 mg, 3 mg daily, dose 7, geometric mean, read-out: AUC0-last): 2420 ng·h/mL
half-life (human, plasma, oral, 3 mg, 3 mg daily, dose 7, geometric mean, read-out: t½ (converted)): 31.3 h
AUC(0-inf) [15]: 7560 ng·h/mL
Cmax [15]: 153 ng/mL
AUC(0-t) (human, plasma, oral, 3 mg, 3 mg daily, dose 14, geometric mean, read-out: AUC0-24): 2770 ng·h/mL
AUC(0-t) (human, plasma, oral, 3 mg, 3 mg daily, dose 14, geometric mean, read-out: AUC0-last): 4510 ng·h/mL
half-life (human, plasma, oral, 3 mg, 3 mg daily, dose 14, geometric mean, read-out: t½ (converted)): 36.5 h
AUC(0-inf) [16]: 6130 ng·h/mL
Cmax [16]: 307 ng/mL
AUC(0-t) (human, plasma, oral, 10 mg, 10 mg daily, dose 1, geometric mean, read-out: AUC0-24): 3410 ng·h/mL
